Experimental data: patent US20230102503A1, “BIOMARKERS FOR OXYTOCIN RECEPTOR ANTAGONIST THERAPY” (ObsEva S.A., priority 2020, published 2023)

How the values were obtained:
[1] = target: CYP2D6 (Homo sapiens, UniProt P10635); experiment: metabolism by CYP2D6 isoform; assay type: in vitro ADME
Description: (§1) At five time points over the course of a 45 minute experiment, the compounds were analyzed by LC-MS/MS. The percentage of each compound remaining at each time point, along with the metabolic half-lives of each compound in the presence of each cytochrome P450 isoform, are indicated in Tables 10-12, below.

[2] = target: CYP2C19 (Homo sapiens, UniProt P33261); experiment: metabolism by CYP2C19 isoform; assay type: in vitro ADME
CYP2C19, sequence (P33261 whole entry, canonical isoform): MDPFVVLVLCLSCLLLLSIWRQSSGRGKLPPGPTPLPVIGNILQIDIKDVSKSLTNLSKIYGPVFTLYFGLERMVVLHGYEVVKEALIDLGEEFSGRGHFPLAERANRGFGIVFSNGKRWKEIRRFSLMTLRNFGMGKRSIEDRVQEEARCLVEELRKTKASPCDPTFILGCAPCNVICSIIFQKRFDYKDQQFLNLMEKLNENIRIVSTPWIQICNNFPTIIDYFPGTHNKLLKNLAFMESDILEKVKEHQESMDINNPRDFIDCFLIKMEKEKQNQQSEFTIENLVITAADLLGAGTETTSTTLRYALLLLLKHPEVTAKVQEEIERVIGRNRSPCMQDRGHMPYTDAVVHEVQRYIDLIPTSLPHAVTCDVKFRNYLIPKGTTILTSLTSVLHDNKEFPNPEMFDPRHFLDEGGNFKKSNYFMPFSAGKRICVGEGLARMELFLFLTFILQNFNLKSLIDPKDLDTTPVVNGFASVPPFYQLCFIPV
Description: as §1

[3] = target: CYP3A4 (Homo sapiens, UniProt P08684); experiment: metabolism by CYP3A4 isoform; assay type: in vitro ADME
CYP3A4, sequence (P08684 whole entry, canonical isoform): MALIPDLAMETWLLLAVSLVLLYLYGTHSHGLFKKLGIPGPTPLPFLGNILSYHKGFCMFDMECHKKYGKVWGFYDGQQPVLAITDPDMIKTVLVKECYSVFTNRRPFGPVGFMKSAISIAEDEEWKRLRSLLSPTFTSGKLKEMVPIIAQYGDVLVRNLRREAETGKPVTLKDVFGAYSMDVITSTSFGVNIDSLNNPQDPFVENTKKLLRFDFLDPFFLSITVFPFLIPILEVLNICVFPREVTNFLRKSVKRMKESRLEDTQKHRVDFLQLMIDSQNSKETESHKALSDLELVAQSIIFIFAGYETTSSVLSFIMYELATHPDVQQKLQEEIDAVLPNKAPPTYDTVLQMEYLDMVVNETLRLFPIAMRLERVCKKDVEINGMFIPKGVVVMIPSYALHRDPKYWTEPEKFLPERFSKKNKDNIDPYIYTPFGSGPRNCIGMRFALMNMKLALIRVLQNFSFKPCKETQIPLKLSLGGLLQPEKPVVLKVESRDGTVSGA
Description: as §1

[4] = plasma concentration of compound (II) in clinical trial of Example 4; assay type: in vivo, human; settings: oral administration of either the 900 mg or the 1,800 mg dose
Description: (§2) Particularly, subjects were pre-treated with estradiol valerate at a dosage of 2 mg administered 3 times per day (TID) for 16 days. Administration of estradiol valerate was followed by vaginal progesterone at a dosage of 200 mg administered TID.

[5] = tested on: healthy female volunteers; experiment: uterine contractions and endometrial blood flow in clinical trial of Example 4; assay type: in vivo, human; settings: single oral dose of 900 mg or 1,800 mg
Description: as §2
These assessments included measurements of uterine contractions by ultrasound and uterine perfusion by a 3D-power Doppler technique.
Mean and median changes in uterine contraction frequency and endometrial vascularity indices (particularly, endometrial flow index (FI), vascularity index (VI), and vascularity flow index (VFI)) were calculated. […] Differences in endometrial mRNA expression were identified and assessed for statistical significance.

[6] = tested on: endometrial RNA transcript expression (DPP4, CNTNAP3, CNTN4, CXCL12, TNXB, CTSE, OLFM4, KRT5, KRT6A, IDO2); experiment: RNA-Seq assay of endometrial tissue mRNA expression before and after administration; assay type: in vivo, human
Description: Using an RNA-Seq assay, each subject's mRNA expression level of a variety of genes, including DPP4, CNTNAP3, CNTN4, CXCL12, TNXB, CTSE, OLFM4, KRT5, KRT6A, and IDO2, was then assessed to determine whether the expression of each gene increased, decreased, or underwent no significant change due to administration of the compound or placebo.

[7] = tested on: uterine contractions; experiment: Uterine contractions after single dose versus placebo; assay type: in vivo, human
[8] = tested on: endometrial perfusion; experiment: Endometrial perfusion parameters (VI, FI, VFI) after single dose; assay type: in vivo, human; settings: for increase in median endometrial VFI: between pre-dose and 24-hour post-dose
[9] = tested on: spontaneous uterine contractions; settings: same vehicle, same model organism; cited from earlier work
[10] = crystal form with XRPD peaks of Table 1; cited from earlier work
[11] = dispersible tablet formulations; cited from earlier work
[12] = 1,800 mg dose, within 24 hours of administration

CYP2D6, sequence (P10635 whole entry, canonical isoform): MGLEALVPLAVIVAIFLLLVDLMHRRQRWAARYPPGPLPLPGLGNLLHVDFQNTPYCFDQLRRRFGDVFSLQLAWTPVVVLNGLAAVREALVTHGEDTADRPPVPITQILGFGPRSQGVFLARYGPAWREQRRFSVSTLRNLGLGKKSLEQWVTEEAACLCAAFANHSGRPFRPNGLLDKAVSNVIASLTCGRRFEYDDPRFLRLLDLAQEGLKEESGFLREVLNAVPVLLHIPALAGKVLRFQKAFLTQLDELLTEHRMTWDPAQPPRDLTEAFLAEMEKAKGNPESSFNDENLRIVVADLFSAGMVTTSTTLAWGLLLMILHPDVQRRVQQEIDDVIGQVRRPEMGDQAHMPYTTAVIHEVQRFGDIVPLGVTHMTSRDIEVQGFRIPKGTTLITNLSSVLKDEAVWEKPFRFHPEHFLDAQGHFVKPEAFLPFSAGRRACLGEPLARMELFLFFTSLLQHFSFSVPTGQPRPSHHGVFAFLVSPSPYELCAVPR

With `CO/N=C1\C[C@@H](CO)N(C(=O)c2ccc(-c3ccccc3C)cc2)C1` [(3E) isomer, (3E,5S)-5-(hydroxymethyl)-1-[(2′-methyl-1,1′-biphenyl-4-yl)carbonyl]pyrrolidin-3-one O-methyloxime] the “preferential metabolism by cytochrome P450 isoform” value (shortened to “preferential metabolism”) [1] was “preferentially metabolized by the CYP2D6 and CYP2C19 isoforms of cytochrome P450” and the “preferential metabolism” value [2] was “preferentially metabolized by the CYP2D6 and CYP2C19 isoforms of cytochrome P450”.
In the case of `CO/N=C1/C[C@@H](CO)N(C(=O)c2ccc(-c3ccccc3C)cc2)C1` [Compound (II), (3Z,5S)-5-(hydroxymethyl)-1-[(2′-methyl-1,1′-biphenyl-4-yl)carbonyl]pyrrolidin-3-one O-methyloxime], the “preferential metabolism” value [3] was “preferentially metabolized by the CYP3A4 isoform of cytochrome P450”, the “time to maximum concentration” value [4] was “about 4 hours” and the “effect on uterine contractions” value ([5]; FIG. 7) was “decrease uterine contractions”. For the same compound, the “effect on endometrial blood flow (FI, VI, VFI)” value ([5]; FIGS. 8-10) was “marked and sustained increase in endometrial blood flow”, the “differences in mRNA expression in endometrial biopsy tissue compared to placebo” value ([6]; 900 mg dose) was “No differences” and the “number of mRNAs downregulated” value [6, 12] was 5. For the same compound, the “number of mRNAs upregulated” value [6, 12] was 5, the “number of mRNAs significantly differentially expressed” value ([6]; 1,800 mg dose, within 24 hours of administration, adjusted p<0.05) was 10 and the “proportion of subjects showing less than one uterine contraction per minute versus placebo” value ([7]; 900 mg dose, 24-hour time point only (p=0.0437)) was “significant difference”. The “number of uterine contractions per minute versus placebo” value ([7]; 900 mg dose, all time points (p>0.10)) was “no significant difference”, the “proportion of subjects showing less than one uterine contraction per minute versus placebo” value ([7]; 1,800 mg dose, 8-hour time point (p=0.0121)) was “significance was seen” and the “number of uterine contractions per minute versus placebo” value ([7]; 1,800 mg dose, from the 4-hour time point onwards (p=0.0923 at 4 h, p=0.0081 at 8 h)) was “contraction-reducing effects were observed”. For the same compound, the “Endometrial Fl” value ([8]; 900 mg dose, 24-hour time point (p=0.0502)) was “significant increases”, the “increase in median endometrial VFI” value ([8]; 900 mg dose) was “approximately 3 fold” and the “endometrial VI versus placebo” value ([8]; 1,800 mg dose, 8-hour time point (p=0.0714)) was “substantial increase”. For the same compound, the “Endometrial Fl” value ([8]; 1,800 mg dose, 24-hour time point (p=0.0625)) was “significant increases”, the “increase in median endometrial VFI” value ([8]; 1,800 mg dose) was “approximately 3 fold” and the “inhibitory activity with respect to uterine contraction, compared with (3E) diastereomer” value [9] was “markedly higher than that of the substantially pure (3E) diastereomer”. For the same compound, the “stability of crystal form” value [10] was “enhanced stability to aqueous media and physical stress” and the “absorption kinetics upon administration to a subject” value [11] was “rapid absorption kinetics”.
